Measured values: patent USRE46630E1, “Substituted 4-pyridones and their use as inhibitors of neutrophil elastase activity” (Boehringer Ingelheim International GmbH, priority 2012, dated 2017)

Target: T1, Human neutrophil elastase (Homo sapiens, UniProt P08246)
T1 construct: purchased Calbiochem 324681
T1 sequence (P08246 30-267): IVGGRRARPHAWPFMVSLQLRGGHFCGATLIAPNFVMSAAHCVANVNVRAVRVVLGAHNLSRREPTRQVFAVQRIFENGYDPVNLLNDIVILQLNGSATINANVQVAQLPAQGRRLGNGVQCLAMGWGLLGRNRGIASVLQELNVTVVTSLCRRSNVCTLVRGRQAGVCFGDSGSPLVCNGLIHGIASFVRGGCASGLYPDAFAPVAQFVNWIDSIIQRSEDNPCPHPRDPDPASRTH
Test: Human Neutrophil Elastase Assay
Format: biochemical
Conditions: Neutrophil Elastase assay; substrate MeOSuc-Ala-Ala-Pro-Val-AMC 250 μM; 15 min preincubation, 60 min incubation at room temperature; pH 7.5
Protocol: Human Neutrophil Elastase Assay
All other materials were of the highest grade commercially available.
The following buffers were used: Compound buffer: 100 mM Tris, 500 mM NaCl, adjusted to pH 7.5; Assay buffer: 100 mM Tris, 500 mM NaCl, adjusted to pH 7.5, containing 0.01% BSA.
Assay conditions: Test compounds were prediluted in DMSO and subsequently in compound buffer (5% DMSO final). […] After inactivation of the enzyme, fluorescence intensities were measured at 380 nm excitation and 460 nm emission wavelengths.
Each plate contains wells with a high value control (DMSO+enzyme+substrate) and wells with a low value control (DMSO+inactivated enzyme+substrate). […] Means of low values were taken as 0%, means of high values as 100%.

IC50	SMILES
22 nM	Cc1c(-c2cccc(C(F)(F)F)c2)c(=O)c(C(=O)NCC2CCCO2)cn1Cc1ccc(C#N)cc1 (stereo not drawn) [Example 1.47]
4.1 nM	Cc1c(-c2cccc(C(F)(F)F)c2)c(=O)c(C(=O)NCc2ccccn2)cn1Cc1ccc(C#N)cc1 [Example 1.48]
10.4 nM	Cc1c(-c2cccc(C(F)(F)F)c2)c(=O)c(C(=O)NCCN2CCOCC2)cn1Cc1ccc(C#N)cc1 [Example 1.49]
1.4 nM	Cc1c(-c2cccc(C(F)(F)F)c2)c(=O)c(C(=O)NCc2ccncc2)cn1Cc1ccc(C#N)cc1 [Example 1.50]
10.7 nM	CCNC(=O)c1cn(Cc2ccc(C#N)cc2)c(C)c(-c2cccc(C(F)(F)F)c2)c1=O [Example 1.51]
9.6 nM	Cc1c(-c2cccc(C(F)(F)F)c2)c(=O)c(C(N)=O)cn1Cc1ccc(C#N)cc1 [Example 1.52]
9 nM	Cc1c(-c2cccc(C(F)(F)F)c2)c(=O)c(C(=O)N[C@H]2CCC(=O)NC2)cn1Cc1ccc(C#N)cc1 [Example 1.53]
41.5 nM	Cc1c(-c2cccc(C(F)(F)F)c2)c(=O)c(C(=O)NCC(=O)N2CCCC2)cn1Cc1ccc(C#N)cc1 [Example 1.54]
4.9 nM	Cc1c(-c2cccc(C(F)(F)F)c2)c(=O)c(C(=O)NC2CCCNC2=O)cn1Cc1ccc(C#N)cc1 (stereo not drawn) [Example 1.55]
4.6 nM	COc1ccc(CNC(=O)c2cn(Cc3ccc(C#N)cc3)c(C)c(-c3cccc(C(F)(F)F)c3)c2=O)cn1 [Example 1.56]
6.8 nM	Cc1c(-c2cccc(C(F)(F)F)c2)c(=O)c(C(=O)NC2CCN(C)C2=O)cn1Cc1ccc(C#N)cc1 (stereo not drawn) [Example 1.57]
8.1 nM	Cc1c(-c2cccc(C(F)(F)F)c2)c(=O)c(C(=O)N[C@H]2CCNC2=O)cn1Cc1ccc(C#N)cc1 [Example 1.58]
10.5 nM	Cc1c(-c2cccc(C(F)(F)F)c2)c(=O)c(C(=O)N[C@@H]2CCNC2=O)cn1Cc1ccc(C#N)cc1 [Example 1.59]
13.3 nM	Cc1nc(CNC(=O)c2cn(Cc3ccc(C#N)cc3)c(C)c(-c3cccc(C(F)(F)F)c3)c2=O)no1 [Example 1.60]
11.4 nM	Cc1c(-c2cccc(C(F)(F)F)c2)c(=O)c(C(=O)NC2CC(=O)N(C)C2)cn1Cc1ccc(C#N)cc1 (stereo not drawn) [Example 1.61]
10.4 nM	Cc1c(-c2cccc(C(F)(F)F)c2)c(=O)c(C(=O)NC2CCC(=O)N(C)C2)cn1Cc1ccc(C#N)cc1 (stereo not drawn) [Example 1.62]
22.5 nM	COC(=O)CNC(=O)c1cn(Cc2ccc(C#N)cc2)c(C)c(-c2cccc(C(F)(F)F)c2)c1=O [Example 1.63]
17.2 nM	Cc1c(-c2cccc(C(F)(F)F)c2)c(=O)c(C(=O)NC2CCS(=O)(=O)C2)cn1Cc1ccc(C#N)cc1 (stereo not drawn) [Example 1.64]
38.5 nM	Cc1c(-c2cccc(C(F)(F)F)c2)c(=O)c(C(=O)NCC(=O)N(C)C)cn1Cc1ccc(C#N)cc1 [Example 1.65]

IC50	SMILES
6.2 nM	Cc1c(-c2cccc(C(F)(F)F)c2)c(=O)c(C(=O)NCCS(C)(=O)=O)cn1Cc1ccc(C#N)cc1 [Example 1.66]
6.5 nM	Cc1noc(CNC(=O)c2cn(Cc3ccc(C#N)cc3)c(C)c(-c3cccc(C(F)(F)F)c3)c2=O)n1 [Example 1.67]
55.3 nM	Cc1c(-c2cccc(C(F)(F)F)c2)c(=O)c(C(=O)NCc2ccc(S(C)(=O)=O)cc2)cn1Cc1ccccc1 [Example 2.1, 1-Benzyl-6-methyl-4-oxo-5-(3-trifluoromethyl-phenyl)-1,4-dihydro-pyridine-3-carboxylic acid 4-methanesulfonyl-benzylamide]
1.9 nM	Cc1c(-c2cccc(C(F)(F)F)c2)c(=O)c(C(=O)NCc2ccc(S(C)(=O)=O)cc2)cn1Cc1ccc(F)cc1 [Example 2.2]
< 1 nM	Cc1c(-c2cccc(C(F)(F)F)c2)c(=O)c(C(=O)NCc2ccc(S(C)(=O)=O)cc2)cn1Cc1ccc(C#N)cn1 [Example 2.3]
1.4 nM	Cc1c(-c2cccc(C(F)(F)F)c2)c(=O)c(C(=O)NCc2ccc(S(C)(=O)=O)cc2)cn1Cc1ccc(C#N)nc1 [Example 2.4]
< 1 nM	Cc1c(-c2cccc(C(F)(F)F)c2)c(=O)c(C(=O)NCc2ccc(S(C)(=O)=O)cc2)cn1[C@H](C)c1ccc(C#N)cc1 [Example 2.5A]
1.6 nM	COc1cc(C#N)ccc1Cn1cc(C(=O)NCc2ccc(S(C)(=O)=O)cc2)c(=O)c(-c2cccc(C(F)(F)F)c2)c1C [Example 2.6]
6.9 nM	Cc1c(-c2cccc(C(F)(F)F)c2)c(=O)c(C(=O)NCc2ccc(S(C)(=O)=O)cc2)cn1Cc1ccc(Cl)cc1 [Example 2.7]
< 1 nM	Cc1c(-c2cccc(C(F)(F)F)c2)c(=O)c(C(=O)NCc2ccc(S(C)(=O)=O)cc2)cn1Cc1ccc(C#N)cc1F [Example 2.8]
< 1 nM	Cc1c(-c2cccc(C(F)(F)F)c2)c(=O)c(C(=O)NCc2ccc(S(C)(=O)=O)cc2)cn1Cc1ccc(C#N)c(F)c1 [Example 2.9]
83.8 nM	Cc1c(-c2cccc(C(F)(F)F)c2)c(=O)c(C(=O)NCc2ccc(S(C)(=O)=O)cc2)cn1Cc1cccc(C#N)c1 [Example 2.10]
38.9 nM	Cc1c(-c2cccc(C(F)(F)F)c2)c(=O)c(C(=O)NCc2ccc(S(C)(=O)=O)cc2)cn1Cc1ccncc1 [Example 2.11]
< 1 nM	Cc1c(-c2cccc(C(F)(F)F)c2)c(=O)c(C(=O)NCc2ccc(S(C)(=O)=O)cc2)cn1Cc1ccc(C#N)cc1 [Example 2.12]
53.7 nM	CNC(=O)c1cn(Cc2ccc(C#N)nc2)c(C)c(-c2cccc(C(F)(F)F)c2)c1=O [Example 3.2]
51 nM	CNC(=O)c1cn(Cc2ccc(F)cc2)c(C)c(-c2cccc(C(F)(F)F)c2)c1=O [Example 3.3]
29.1 nM	CNC(=O)c1cn(Cc2ccc(Cl)cc2)c(C)c(-c2cccc(C(F)(F)F)c2)c1=O [Example 3.4]
19.3 nM	CNC(=O)c1cn(Cc2ccc(C#N)c(F)c2)c(C)c(-c2cccc(C(F)(F)F)c2)c1=O [Example 3.5]
20.3 nM	CNC(=O)c1cn(Cc2ccc(C#N)cc2F)c(C)c(-c2cccc(C(F)(F)F)c2)c1=O [Example 3.6]

IC50	SMILES
26.4 nM	CNC(=O)c1cn(Cc2ccc(C#N)cc2OC)c(C)c(-c2cccc(C(F)(F)F)c2)c1=O [Example 3.7]
< 1 nM	Cc1c(-c2cccc(C(F)(F)F)c2)c(=O)c(C(=O)NCc2ccc(S(C)(=O)=O)cn2)cn1Cc1ccc(C#N)cc1 [Example 4.1, 1-(4-cyano-benzyl)-6-methyl-4-oxo-5-(3-trifluoromethyl-phenyl)-1,4-dihydro-pyridine-3-carboxylic acid (5-methanesulfonyl-pyridin-2-ylmethyl)-amide]
2.1 nM	Cc1c(-c2cccc(C(F)(F)F)c2)c(=O)c(C(=O)NCc2ccc(S(C)(=O)=O)cn2)cn1Cc1ccc(Cl)cc1 [Example 4.2]
58 nM	Cc1c(-c2cccc(C(F)(F)F)c2)c(=O)c(C(=O)NCc2ccc(S(C)(=O)=O)cn2)cn1Cc1ccncc1 [Example 4.3]
63.8 nM	Cc1c(-c2cccc(C(F)(F)F)c2)c(=O)c(C(=O)NCc2ccc(S(C)(=O)=O)cn2)cn1Cc1cccc(C#N)c1 [Example 4.4]
1 nM	Cc1c(-c2cccc(C(F)(F)F)c2)c(=O)c(C(=O)NCc2ccc(S(C)(=O)=O)cn2)cn1Cc1ccc(C#N)c(F)c1 [Example 4.5]
< 1 nM	COc1cc(C#N)ccc1Cn1cc(C(=O)NCc2ccc(S(C)(=O)=O)cn2)c(=O)c(-c2cccc(C(F)(F)F)c2)c1C [Example 4.7]
1.4 nM	Cc1c(-c2cccc(C(F)(F)F)c2)c(=O)c(C(=O)NCc2ccc(S(C)(=O)=O)cn2)cn1Cc1ccc(C#N)nc1 [Example 4.8]
< 1 nM	Cc1c(-c2cccc(C(F)(F)F)c2)c(=O)c(C(=O)NCc2ccc(S(C)(=O)=O)cn2)cn1Cc1ccc(C#N)cc1F [Example 4.9]
< 1 nM	Cc1c(-c2cccc(C(F)(F)F)c2)c(=O)c(C(=O)NCc2ccc(S(C)(=O)=O)cn2)cn1C(C)c1ccc(C#N)cc1 (stereo not drawn) [Example 4.10]
2.8 nM	Cc1c(-c2ccnc(C(F)(F)F)c2)c(=O)c(C(=O)NCc2ccc(S(C)(=O)=O)cc2)cn1Cc1ccc(C#N)cn1 [Example 5.1]
1.2 nM	Cc1c(-c2ccnc(C(F)(F)F)c2)c(=O)c(C(=O)NCc2ccc(S(C)(=O)=O)cc2)cn1Cc1ccc(C#N)c(F)c1 [Example 5.2]
1.4 nM	Cc1c(-c2ccnc(C(F)(F)F)c2)c(=O)c(C(=O)NCc2ccc(S(C)(=O)=O)cc2)cn1Cc1ccc(C#N)cc1F [Example 5.3]
44.5 nM	Cc1c(-c2ccccc2)c(=O)c(C(=O)NCc2ccc(S(C)(=O)=O)cc2)cn1Cc1ccc(C#N)cc1 [Example 6.1, 1-(4-Cyano-benzyl)-6-methyl-4-oxo-5-phenyl-1,4-dihydro-pyridine-3-carboxylic acid 4-methanesulfonyl-benzylamide]
1.5 nM	Cc1cccc(-c2c(C)n(Cc3ccc(C#N)cc3)cc(C(=O)NCc3ccc(S(C)(=O)=O)cc3)c2=O)c1 [Example 6.2]
9.1 nM	Cc1cc(-c2c(C)n(Cc3ccc(C#N)cc3)cc(C(=O)NCc3ccc(S(C)(=O)=O)cc3)c2=O)ccn1 [Example 6.3]
19.3 nM	Cc1cncc(-c2c(C)n(Cc3ccc(C#N)cc3)cc(C(=O)NCc3ccc(S(C)(=O)=O)cc3)c2=O)c1 [Example 6.4]
9.6 nM	Cc1c(-c2cccc(F)c2)c(=O)c(C(=O)NCc2ccc(S(C)(=O)=O)cc2)cn1Cc1ccc(C#N)cc1 [Example 6.5]

Same assay, conditions: eutomer versus distomer of the racemic example

neutrophil elastase inhibitory potency, one enantiomer compared with the other	SMILES
much more active	Cc1c(-c2cccc(C(F)(F)F)c2)c(=O)c(C(=O)NCc2ccc(S(C)(=O)=O)cc2)cn1[C@H](C)c1ccc(C#N)cc1 [Example 2.5A]
